# Assay results from patent US6399745B1, “Use of leptin antagonists for treating insulin resistance in type II diabetes” (Aventis Pharma Deutschland GmbH, priority 1996, dated 2002).
# Test system: isolated rat adipocytes
# Assay: Glucose transport (2-deoxyglucose uptake) in isolated rat adipocytes after primary culture with leptin, basal and insulin-stimulated
# Format: cell-based
# Experimental: Adipocytes were prepared from the epididymal fat tissue of male Wistar rats (140-160 g, Hoechst AG breeding station, Kastengrund) by means of digesting with collagenase (Rodbell, 1964, J. Biol. Chem. 239, 375-380), washed twice with KRH (25 mM Hepes free acid, 25 mM Hepes sodium salt, 80 mM NaCl, 1 mM MgSO4, 2 mM CaCl2, 6 mM KCl, 1 mM sodium pyruvate, 0.5% BSA) and once with DMEM (Dulbecco's minimal essential medium), supplemented with 5.5 mM glucose, 20 mM Hepes (pH 7.4), 2% fetal calf serum, 1% BSA, 50 U of penicillin/ml, […], by means of flotation (800×g, 1 min, in small plastic tubes), and finally diluted to a volume of 20 ml of DMEM/g wet weight of the fat tissue (cell titer: approximately 2.5×10^5 cells/ml).
# The adipocytes were incubated, at 37° C. for 15-18 h under an atmosphere of 5% CO2 and with gentle shaking, in supplemented (see above) DMEM in the presence of 100 nM phenylisopropyladenosine (4 ml of DMEM to 1 ml of cells, cell titer approximately 5×10^4 cell/ml, in 50 ml sterile polypropylene: tubes) and in the presence or absence of leptin. The adipocytes were subsequently washed three times with cold KRH and adjusted to a cell titer of approximately 3×10^5 cells/ml by adding 0.7 ml of glucose-free KRH to the cell layer which remained after the complete removal of the last washing solution. In order to determine the capacity of the adipocytes to be stimulated by insulin, and their sensitivity to insulin, following the primary culture, the washed adipocytes were incubated at 37° C. for 20 min in the absence or presence of human insulin (0.02-50 nM final concentration), and glucose transport or lipogenesis was then measured.
# Glucose transport was measured as the specific uptake of the non-metabolizable glucose analog 2-deoxyglucose (Muller and Wied, 1993, Diabetes 42, 1852-1867). 50 μl of the adipocyte suspension in KRH, which suspension had or had not been preincubated with insulin (see above), were incubated, at 25° C. for 5 min, with 50 μl of KRH which was supplemented with 2-deoxy-D-[2,6-^3H]glucose (0.5 μCi, 0.2 mM). The incubation mixtures were transferred to thin soft-plastic centrifuge tubes, each of which already contained 200 μl of dinonyl phthalate oil, and immediately centrifuged (2,000×g, 30 sec). Using special shears, the tubes were severed within the oil layer (in the vicinity of the upper edge) and the upper halves of the tubes, together with the cell layers which had in each case been floated onto the oil layer, were transferred to scintillation vials. After 10 ml of scintillation fluid (water-based) had been added, the radioactivity associated with the cells was measured. In order to correct for 2-deoxyglucose which had become enclosed in the cell interstices, or had diffused into the cells, in a non-specific manner, the radioactivity of cells which had been preincubated with cytochalasin B (20 μM) was subtracted from the total cell-associated radioactivity of each individual incubation mixture (Gliemann et al., 1972, Biochim. Biophys. Acta 286, 1-9).
# Isolated rat adipocytes were incubated for 15 h in primary culture in the presence or absence of increasing concentrations of leptin. […] The stimulation factor for insulin was calculated as the ratio between insulin-stimulated and basal activities. Each value represents the mean from two independent adipocyte cultures with activity being determined two or three times in each case.
# The cells were then washed and tested for the stimulation of glucose transport by differing concentrations of insulin. Glucose transport activity is given as a “dpm value” of the 2deoxy-[^3H]glucose which is specifically associated with the cells. Each value represents the mean from two independent adipocyte cultures with the activity being determined four times in each case.
substance,measurement,setting,value
Insulin: human insulin used to stimulate adipocytes [reference compound],stimulation of glucose transport by insulin,insulin 10 nM,approximately 14 fold
same,insulin concentration at which effects can already be detected in vitro,"insulin dose/effect curves, glucose transport",0.1 to 0.2 nM
same,"glucose transport, uptake of 3H-labeled 2-deoxyglucose","no leptin, insulin 0.02 nM",784 dpm
same,"glucose transport, uptake of 3H-labeled 2-deoxyglucose","no leptin, insulin 0.05 nM",1285 dpm
same,"glucose transport, uptake of 3H-labeled 2-deoxyglucose","no leptin, insulin 0.1 nM",2406 dpm
same,"glucose transport, uptake of 3H-labeled 2-deoxyglucose","no leptin, insulin 0.2 nM",4762 dpm
same,"glucose transport, uptake of 3H-labeled 2-deoxyglucose","no leptin, insulin 0.5 nM",6976 dpm
same,"glucose transport, uptake of 3H-labeled 2-deoxyglucose","no leptin, insulin 1 nM",7981 dpm
same,"glucose transport, uptake of 3H-labeled 2-deoxyglucose","no leptin, insulin 2 nM",8576 dpm
same,"glucose transport, uptake of 3H-labeled 2-deoxyglucose","no leptin, insulin 5 nM",8956 dpm
same,"glucose transport, uptake of 3H-labeled 2-deoxyglucose","no leptin, insulin 10 nM",9064 dpm
same,"glucose transport, uptake of 3H-labeled 2-deoxyglucose","no leptin, insulin 50 nM",9072 dpm
same,"Glucose Transport, stimulation factor for insulin (stimulated/basal)","no leptin, Insulin concentration: 5 nM",13.4
